# Earlier results as cited in patent US20050180940A1, “Protect against hair loss” (priority 2004, published 2005).
# Tested on: common male-pattern baldness
# Details: two daily topical applications, person, after 3-4 weeks
substance,measurement,value
sucralfate,Effect on common male-pattern baldness (hair appearance),appearance of hair in the otherwise bald lateral-frontal areas in the scalp
